From PubChem BioAssay (NCI)
Several values for one entry are separate records, joined by “and”; a condition that tells them apart may be missing. Equal values may be shown once.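 Five compound concentrations were applied to cells in 96-well plates for 48 hours; endpoints were derived by simple linear interpolation of the resulting dose-response curve. Abbreviation: GI50, concentration required for 50% inhibition of growth. Definition used: TGI = concentration required for complete inhibition of growth.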

Columns and labels:
Assay in all cases: DTP human tumour cell line panel, 48 h
[1] = system: COLO 205 colon
[2] = system: HOP-62 NSCLC
[3] = system: HOP-92 NSCLC
[4] = system: IGROV1 ovarian
[5] = system: LOX IMVI melanoma
[6] = system: MOLT-4 leukemia
[7] = system: NCI-H23 lung
[8] = system: OVCAR-4 ovarian
[9] = system: OVCAR-8 ovarian
[10] = system: SN12C renal

| Compound | GI50 [1] | TGI [1] | GI50 [2] | TGI [2] [µM] | GI50 [3] [µM] | TGI [3] [µM] | GI50 [4] | TGI [4] [µM] | GI50 [5] | TGI [5] [µM] | GI50 [6] | TGI [6] [µM] | GI50 [7] | TGI [7] [µM] | GI50 [8] | TGI [8] [µM] | GI50 [9] | TGI [9] [µM] | GI50 [10] | TGI [10] [µM] |
| --- | --- | --- | --- | --- | --- | --- | --- | --- | --- | --- | --- | --- | --- | --- | --- | --- | --- | --- | --- | --- |
| Cc1ccc2c(c1)sc(-c1ccc(N(C)C)cc1)[n+]2C | 0.368 µM | 1.44 µM | 3.66 µM | > 41.4 | 0.719 | 5.36 | 3.77 µM | > 100 | 1280 nM | 21.8 | 1.93 µM | > 48.7 | 0.987 µM | > 48.8 | 1.58 µM | > 100 | 1.41 µM | 34.8 | 2.71 µM | 42.8 |
| O=[N+]([O-])/C=C\c1ccc2c(c1)OCO2 | 3.71 µM | 13.4 µM | 13.3 µM | 27 | 12.5 | 30.9 | 1.98 µM | 4.67 | 1830 nM | 4.15 | 17.6 µM | 67.7 | 2.52 µM | 7.38 | 11.8 µM | 24.2 | 2.86 µM | 10.4 | 11.4 µM | 30.3 |
| Cn1nnnc1[N-]Cc1ccccc1.[Au+].c1ccc([PH+](c2ccccc2)c2ccccc2)cc1 | 2.29 µM | 5.81 µM | 16 µM | 30 | 2.44 | 4.68 | 2.43 µM | 8.16 | 2530 nM | 8.55 | 1.67 µM | 4.75 | 3.35 µM | 10.4 | 1.99 µM | 5.42 | 3.13 µM | 10.1 | 5.01 µM | 17 |
| ClCCn1cnc2c(SCc3ccccc3)ncnc21 | 1.79 µM | > 100 µM | 1.44 µM | > 100 | 16.3 | > 100 | 0.497 µM | 10.7 | 534 nM | 18.6 | 0.823 µM | > 100 | 29.2 µM | > 100 | 19.8 µM | > 100 | 1.18 µM | > 100 | 8.54 µM | > 100 |
| Cn1cnc([N+](=O)[O-])c1Sc1ncnc2nc[nH]c12 | 11.6 µM and 19.9 µM | 65.1 µM and > 100 µM | 0.882 µM and 5.79 µM | > 100 |  | > 100 | 9.13 µM and 12.1 µM | > 100 | 1110 nM and 1630 nM | > 100 | 8.77 µM and 6.68 µM | > 100 | 4.01 µM and 13.3 µM | > 100 | 3.38 µM and 10.2 µM | > 100 | 3.68 µM and > 26.6 µM | > 100 | 20.5 µM and 36.4 µM | > 100 |
| Cc1ccc(N2C(=O)C(Cl)=C(Nc3cccc(O)c3)C2=O)cc1Cl | 26.4 µM | 73 µM | 17.7 µM | 36.3 | 15.7 | 37.6 | 31.5 µM | > 100 | 16400 nM | 33.2 | 3.13 µM | 21.2 | 15.2 µM | 30.5 | 26.9 µM | 76.3 | 16.8 µM | 43.5 | 19.7 µM | 44.1 |
| O=Nc1c2cccnc2n2nnc3ccc(Cl)cc3c12 | 1.32 µM | 5.07 µM | 4.64 µM | 11.4 | 0.0999 | 1.75 | 1.25 µM | 7.69 | 1350 nM | 6.19 | 0.0476 µM | 1.49 | 2.09 µM | 10.2 | 0.98 µM | 3.86 | 3.74 µM | 11.2 | 2.06 µM | 11.7 |
| CCOC(=O)/C(C1=CC(=O)C(=O)c2ccccc21)=C(/C)NCc1ccccc1 | 2.01 µM | 4.54 µM | 1.56 µM | 3.44 | 1.4 | 3.52 | 1.05 µM |  | 1150 nM | 2.36 | 0.182 µM | 0.434 | 1.85 µM | 3.71 | 3.12 µM | 56.7 | 3.69 µM | 9.5 | 2.12 µM | 5.09 |
| O=C1NC(=O)C(c2ccccc2Cl)=C1Nc1cccc(O)c1 | 7.17 µM | > 21.6 µM | 3.89 µM | > 25 | 8.53 | > 25 | > 25 µM | > 25 | 15100 nM | > 25 | > 25 µM | > 25 | 10.5 µM | > 25 | 7.02 µM | > 25 | 24.6 µM | > 25 | > 19.4 µM | > 25 |
| OCCCNCc1ccccn1 |  | > 100 µM |  | > 100 |  | > 100 |  | > 100 |  | > 100 |  | > 100 |  | > 100 |  | > 100 |  | > 100 |  | > 100 |
| CC(=O)O/C(C)=C\C(=O)O/N=C(\N)c1ccc(C)cc1 |  | > 100 µM |  | > 100 |  | > 100 |  | > 100 |  | > 100 |  | > 100 |  | 48.4 |  | 64.5 |  | > 100 |  | 57.4 |
| CC1=C(N2CC2)C(=O)c2nc3n(c2C1=O)CCC3O (stereo not drawn) |  | 1.33 µM |  | 0.516 |  | 5.72 |  | 1.2 |  | 1.92 |  | 21.1 |  | 0.262 |  | 0.269 |  | 0.688 |  | 2.71 |
| CC1=CC[C@@H]2C(C)(C)[C@@H](O)CC[C@@]2(C)[C@@H]1COc1ccc2ccc(=O)oc2c1 | 5.35 µM | 23.6 µM | 6.84 µM | 26.1 | 3.83 | 18.2 | 6.03 µM | 22 | 4770 nM | 19 | 3.14 µM | 15.7 | 10.8 µM | 33 | 3.66 µM | 12.7 | 3.77 µM | 17.2 | 4.77 µM | 22.7 |
| Cc1ccc(-n2c(C)nc3c2C(=O)c2ccccc2C3=O)cc1 |  | 41.8 µM |  | > 100 |  | > 100 |  | > 100 |  | 97.2 |  | > 100 |  | > 100 |  | > 100 |  | > 100 |  | > 100 |
